Series [1] in a line: Antioxidant activity assessed as DPPH radical scavenging activity after 30 mins under dark condition by spectrophotometric analysis. Type of series: functional.
Series [2] has as its system Mus musculus. The experiment in a line: Radioprotective activity in ip dosed Swiss albino mouse assessed as reduction in gamma-irradiation-induced decline in serum albumin level at 1/10 x LD50 treated at 2 hrs prior to 5 Gy gamma irradiation exposure on 1st day followed by compound treatment for next 2 days and measured at 24 hrs post last dose. The class given is functional, organism-based. The note with it: time 3.0 day.

Series [3] concerns Mus musculus. The experiment in a line: Radioprotective activity in ip dosed Swiss albino mouse assessed as reduction in gamma irradiation-induced increase in NF-kappaB activity by measuring decrease in NFkappaB activity in liver at 1/10 x LD50 treated at 2 hrs prior to 5 Gy gamma irradiation exposure on 1st day followed by compound treatment for next 2 days and measured at 24 hrs post last dose by ELISA. The note with it: time 3 day. Type of series: functional. In general terms: ELISA stands for enzyme-linked immunosorbent assay.

In series [4] the test system is Mus musculus. Briefly: Hepatoprotective activity in ip dosed Swiss albino mouse assessed as serum AST level at 1/10 x LD50 treated at 2 hrs prior to 5 Gy gamma irradiation exposure on 1st day followed by compound treatment for next 2 days and measured at 24 hrs post last dose. The note with it: time 3.0 day. The class given is functional, organism-based.
The test system of series [5] is Mus musculus. The experiment in a line: Hepatoprotective activity in ip dosed Swiss albino mouse assessed as serum ALT level at 1/10 x LD50 treated at 2 hrs prior to 5 Gy gamma irradiation exposure on 1st day followed by compound treatment for next 2 days and measured at 24 hrs post last dose. The class given is functional, organism-based. The note with it: time 3.0 day.

Series [6] concerns Mus musculus. Briefly: Antioxidant activity in ip dosed Swiss albino mouse assessed as reduction in gamma irradiation-induced hepatic oxidative stress by measuring reduction in ROS level in liver at 1/10 x LD50 treated at 2 hrs prior to 5 Gy gamma irradiation exposure on 1st day followed by compound treatment for next 2 days and measured at 24 hrs post last dose. The class given is functional. The note with it: time 3 day.

Series [7] can be described thus: Acute toxicity in ip dosed Swiss albino mouse measured after 24 hrs. The class given is organism-based. The note with it: in vivo.
Series [8] concerns Mus musculus. Briefly: Antioxidant activity in ip dosed Swiss albino mouse assessed as reduction in gamma irradiation-induced hepatic oxidative stress by measuring increase in SOD activity in liver at 1/10 x LD50 treated at 2 hrs prior to 5 Gy gamma irradiation exposure on 1st day followed by compound treatment for next 2 days and measured at 24 hrs post last dose. Type of series: functional. The note with it: time 3 day. More on the design: scale not given: the % may be the effect or the level left.

For series [9], the system named is Mus musculus. The experiment in a line: Antioxidant activity in ip dosed Swiss albino mouse assessed as reduction in gamma irradiation-induced hepatic oxidative stress by measuring reduction in MDA level in liver at 1/10 x LD50 treated at 2 hrs prior to 5 Gy gamma irradiation exposure on 1st day followed by compound treatment for next 2 days and measured at 24 hrs post last dose. The class given is functional. The note with it: time 3 day.

The test system of series [10] is Mus musculus. The experiment in a line: Antioxidant activity in ip dosed Swiss albino mouse assessed as reduction in gamma irradiation-induced hepatic oxidative stress by measuring increase in Zn2+ concentration in liver at 1/10 x LD50 treated at 2 hrs prior to 5 Gy gamma irradiation exposure on 1st day followed by compound treatment for next 2 days and measured at 24 hrs post last dose. The note with it: time 3 day. Type of series: functional. On the set-up: scale not given: the % may be the effect or the level left.

For series [11], the system named is Mus musculus. The experiment in a line: Radioprotective activity in ip dosed Swiss albino mouse assessed as reduction in gamma irradiation-induced decrease in PON1 activity by measuring increase in PON1 activity in liver at 1/10 x LD50 treated at 2 hrs prior to 5 Gy gamma irradiation exposure on 1st day followed by compound treatment for next 2 days and measured at 24 hrs post last dose. The class given is functional. More on the design: scale not given: the % may be the effect or the level left. The note with it: time 3 day.

Structures are written as SMILES. Calls of active or inactive are those of the source. No cut-off for these calls is given here.

A word on the IC50: it is the concentration needed to halve the response being measured. Take `CN1C(=O)c2ccc(NC(=O)CSc3nc4ccccc4c(=O)n3-c3ccc(S(N)(=O)=O)cc3)cc2C1=O`: the IC50 in series [1] came to 48.5 µM.
Take `Cn1c(NC(=O)CSc2nc3ccccc3c(=O)n2-c2ccc(S(N)(=O)=O)cc2)cc(=O)n(C)c1=O`: in series [1], the IC50 is 56.4 µM.
For `NS(=O)(=O)c1ccc(-n2c(SCC(=O)Nc3nc4ccc([N+](=O)[O-])cc4s3)nc3ccccc3c2=O)cc1`, in [1], the IC50 came out at 94.8 µM.
For `NS(=O)(=O)c1ccc(-n2c(SCC(=O)NCCN3CCOCC3)nc3ccccc3c2=O)cc1`, the IC50 in series [1] turned out to be 69.8 µM.
For the molecule `NS(=O)(=O)c1ccc(-n2c(SCC(=O)Nc3nnc(C(F)(F)F)s3)nc3ccccc3c2=O)cc1`, in [1], the IC50 worked out at 107 µM.
On the same count and under the same terms, the result for `CCOC(=O)c1cccc(NC(=O)CSc2nc3ccccc3c(=O)n2-c2ccc(S(N)(=O)=O)cc2)c1` reads 65.7 µM.
For `NS(=O)(=O)c1ccc(-n2c(SCC(=O)Nc3c[nH]c(=O)[nH]c3=O)nc3ccccc3c2=O)cc1`, the IC50 in [1] is 54.4 µM.
For the molecule `CCOc1ccc2nc(NC(=O)CSc3nc4ccccc4c(=O)n3-c3ccc(S(N)(=O)=O)cc3)sc2c1`, the half-inhibitory concentration (IC50) in [1] was 50.5 µM.
`CCOC(=O)N1CCC(NC(=O)CSc2nc3ccccc3c(=O)n2-c2ccc(S(N)(=O)=O)cc2)CC1`: in series [1], the IC50 is 108 µM.
As a reminder, the LD50 is the dose at which mortality reaches 50%. Consider `NS(=O)(=O)c1ccc(-n2c(SCC(=O)Nc3cnccn3)nc3ccccc3c2=O)cc1`, for which, in the series on Mus musculus [2], the outcome was Active. Further, the “inhibition (INH)” value with Mus musculus [3] came to 45.6%; in the series with Mus musculus [6] it was 30.6%; in the series with Mus musculus [9], 49%. Besides, the outcome in the series with Mus musculus [4] and in the series on Mus musculus [5] was inactive. In addition, the LD50 at 24 h in series [7] worked out at 200 mg/kg. Also, the Activity with Mus musculus [8] stood at 157%; in the series on Mus musculus [10] it was 39.4%; with Mus musculus [11] it was 104.8%. The half-maximal inhibitory concentration (IC50) in [1] stood at 45.8 µM.
As for `O=C1O[C@H]([C@@H](O)CO)C(O)=C1O` [ASCORBIC ACID], in [1], the IC50 was found to be 132 µM.
With `CCOC(=O)c1ccccc1NC(=O)CSc1nc2ccccc2c(=O)n1-c1ccc(S(N)(=O)=O)cc1`, the IC50 in series [1] turned out to be 89.5 µM.
Regarding `Cc1cc(NC(=O)CSc2nc3ccccc3c(=O)n2-c2ccc(S(N)(=O)=O)cc2)no1`, the IC50 in series [1] was 82.4 µM.
As to `NS(=O)(=O)c1ccc(-n2c(SCC(=O)NN3CCOCC3)nc3ccccc3c2=O)cc1`, in series [1], the IC50 turned out to be 66.4 µM.
`NS(=O)(=O)c1ccc(-n2c(SCC(=O)NC3CCN(Cc4ccccc4)CC3)nc3ccccc3c2=O)cc1`: in [1], the IC50 was 104 µM.
For the molecule `NS(=O)(=O)c1ccc(-n2c(SCC(=O)Nc3nccs3)nc3ccccc3c2=O)cc1`, the IC50 in series [1] is 125 µM.

These data come from ChEMBL document CHEMBL4680255, “Antioxidant activity of novel quinazolinones bearing sulfonamide: Potential radiomodulatory effects on liver tissues via NF-κB/ PON1 pathway” (Eur J Med Chem, 2020).
